According to patent US5132291A, “Antivirals and methods for increasing the antiviral activity of AZT” (priority 1989, dated 1992):
Read-outs that look alike come from different tables or passages of the source.

Assays:
[1] = system: SAH hydrolase; experiment: SAH hydrolase inhibition; format: biochemical
Protocol: The effect of incubation time and AICA riboside concentration on SAH hydrolase activity was determined as follows. Five samples of SAH hydrolase were incubated at the following AICA riboside concentrations: 0, 10, 25, 50 and 100 μM. The incubation buffer consisted of 25 mM potassium phosphate pH 7.0, 1 mM EDTA, 1 mM, DTT and 0.04% BSA. The total enzyme added to incubation mixture was 10 μg. At indicated times, 10 μl of sample was withdrawn and assayed in the following assay system: 25 mM potassium phosphate, pH 7.0, 40 mM DL-Homocysteine, 1 mM EDTA, 1 mM DTT, 10 μM EHNA, 0.1% BSA and 10 μM U-^14 C Adenosine (590 m Ci/mmole). The reaction was stopped by adding 15 μl of 30% TCA. The samples were then centrifuged and 15 μl were removed and applied to Kodak cellulose 13254 TLC plates along with SAH and adenosine markers. The plates were then developed in a solvent system of 1-butanol:methanol:H2 O:ammonium hydroxide (60:20:20:2). The adenosine and S-adenosyl homocysteine were visualized under UV light and the spots were cut from the plate. Radioactivity of the spots was determined by liquid scintillation spectrometry. From a plot of the reciprocal of Kinactivation vs. 1/AICA riboside concentration the values of Ki (X-intercept) and Kmax (Y-intercept), were determined (FIG. 10(b)).

[2] = system: BAG vector pseudotyped by MA (amphotrophic murine leukemia virus); experiment: U937/BAG+MA colony resistance assay titered on 208F rat fibroblasts; format: cell-based; details: 500 μM AICA riboside
Protocol: A second, similar assay system was utilized in which a human macrophage line (U937) carrying the BAG retroviral vector construct (having neomycin resistance and beta-galactosidase marker genes), Cepko, PNAS, Vol. 84, p. 156-160 (1987), was infected with MA (amphotrophic MLV [murine leukemia virus]). MA was used to pseudotype the replication-defective BAG vector, which was then titered on 208F cells. According to this assay, the results of which are shown in FIG. 1c, 0.01 μM AZT and 500 μM AICA riboside were both effective against murine retroviruses. […]
In this colony-forming bioassay for the characterization of antiviral compounds against retroviruses, a replication-defective retroviral vector construct having the ability to confer neomycin-resistance (U937/BAG or N2) is psuedotyped, infects a single cell, and under neomycin selection, allows the recipient cell to form a colony. Since each infection yields a neomycin-resistant cell capable of producing a discrete group of cells, colonies can be counted, resulting in a linear relationship between the number of colonies and the first order of virus concentration. […]
After drying, the plates were stained with 2 ml of 1:20 Glemsa (Sigma) for 1 hour. […] All colonies containing 50 or more cells were scored.

[3] = system: WI-L2 cells; experiment: Lymphoblast assay, effects on cell growth, WI-L2 B-cell line; format: cell-based; details: AICA riboside alone, up to 500 μM
Protocol: Several lymphoblast lines were utilized in conjunction with varying doses of antiviral agents to determine their effects on cell growth. In this method a daily cell count over a period of time, post-addition of antiviral compounds, can be compared with the normal cell growth curve.
Two representative T-cell lines, SupT-1 and CEM, and a B-cell line, WI-L2, were grown to mid-log phase 5×10^5 cells/ml in 50 ml of RPMI 1640 (Irvine Scientific) supplemented with 10% heat-inactivated fetal calf serum (Gemini-Bioproducts) and 1% glutamine (Gibco) to standardize seeding conditions and to assure a population of logarithmically growing cells.
An appropriate number cf T-25 flasks (Corning) were seeded with evenly suspended cells at 0.5×10^5 cells/ml in 20 ml of fresh growth media. Including a control condition, each set of flasks was treated with a dose range of antiviral compound for each cell line. Each dose condition was repeated in triplicate. All flasks were incubated for 5 days at 37° C. in a 5% CO2 incubator.
Every 24 hours for 5 days, three 0.2 ml samples of each flask were diluted in 9.8 ml of isoton (Fisher Scientific) and counted on a cell counter (Coulter Co.). The average of each flask was recorded, and the average of each triplicate antiviral does was then averaged and recorded.

NC(=O)c1ncn([C@@H]2O[C@H](CO)[C@@H](O)[C@H]2O)c1N [AICA riboside, 5-amino-1-β-D-ribofuranosyl-imidazole-4-carboxamide]
inhibition of SAH hydrolase [1]: very potent inhibitors | inhibition of SAH hydrolase ([1]; even at a concentration as low as 10 μM): potent inhibitors | effectiveness against murine retroviruses [2]: effective | effect on WI-L2 (B-cell) growth [3]: no effect
